Measurements: patent US12319655B2, “RAF kinase inhibitors and methods of use thereof” (Deciphera Pharmaceuticals, LLC, priority 2021, dated 2025)

How the values were obtained:
Assay type in all cases: cell-based
Miapaca-2 cells [1] = assay: MiaPaca-2 Combination Cell proliferation Assay (1) with cobimetinib; conditions: MiaPaca-2 cell proliferation, read-out: MiaPaca-2 Combo (1) IC50
Miapaca-2 cells [2] = assay: MiaPaca-2 Combination Cell Proliferation Assay (2) with cobimetinib; conditions: MiaPaca-2 cell proliferation, read-out: MiaPaca-2 Combo (2) IC50
Method: MiaPaca-2 Combination Cell Proliferation Assay (2)
Miapaca-2 cells (catalog #CRL-1420) are obtained from the American Type Culture Collect (ATCC, Manassas, VA). Briefly, cells were grown in DMEM supplemented with 10% characterized fetal bovine serum (Invitrogen, Carlsbad, CA), 2.5% New Zealand sourced horse serum and 1% Penicillin/Streptomycin/L-Glutamine at 37° C., 5% CO2, and 95% humidity. Cells are expanded until reaching 70-95% confluency at which point they are subcultured or harvested for assay use. Using the Beckman Coulter Echo 650, a threefold, 8-point serial dilution of compound was spotted column wise into a 384 well black, clear bottom, tissue culture treated plate. Likewise, a threefold, 8-point serial dilution of cobimetinib was spotted row wise into the 384 well black, clear bottom plate containing compound. DMSO concentration was constant across all wells at 0.4%. Seven hundred fifty cells are added per well in 50 μL complete growth medium in each 384-well plate. Plates are incubated for 67-72 hours at 37° C., 5% CO2, and 95% humidity. At the end of the incubation, 10 μL of a 440 μM solution of resazurin (Sigma, St. Louis, MO) in PBS is added to each well of the plate and plates are incubated for an additional 4-6 hours at 37° C., 5% CO2, and 95% humidity. Plates are read on a Synergy2 or equivalent reader (Biotek, Winooski VT) using an excitation of 540 nm and an emission of 600 nm. Drug synergy was assessed via BLISS analysis in the Combenefit software (Cancer Research UK Cambridge Institute, Cambridge, UK). Data is analyzed using Prism software (Graphpad, San Diego, CA) to calculate IC50 values. Shifts in test compound IC50 values are reported from top-constrained combination therapy curves.

WM3629 cells = assay: WM3629 Cell Proliferation Assay (2)
Method: WM3629 Cell Proliferation Assay (2)
WM3629 cells (#WM3629-01-0001) are obtained from Rockland Immunochemicals Inc (Gilbertsville, PA). Briefly, cells were grown in MCDB 153 medium (Sigma, #M7403, St. Louis, MO) supplemented with 20% Leibovitz's L-15 (ThermoFisher #11415-064, Waltham, MA), 2% heat inactivated fetal bovine serum (ThermoFisher, #A3840001, Waltham, MA), 5 μg/mL Insulin (Bovine Pancreas) (Sigma, #I0516, St. Louis, MO), 1.68 mM Calcium Chloride (Sigma, #C-34006, St. Louis, MO) and 1% Penicillin/Streptomycin/L-Glutamine (ThermoFisher #10378016, Waltham, MA) at 37° C., 5% CO2, and 95% humidity. Cells are expanded until reaching 70-95% confluency at which point they are sub-cultured or harvested for assay use. Using the Beckman Coulter Echo 650, a serial dilution of test compound is dispensed into a 384-well black clear bottom plate in triplicate. One thousand one hundred twenty-five cells are added per well in 50 μL complete growth medium in the 384-well plate. Plates are incubated for 67-72 hours at 37° C., 5% CO2, and 95% humidity. At the end of the incubation, 10 μL of a 440 μM solution of resazurin (Sigma, #199303, St. Louis, MO) in PBS is added to each well of the plate and plates are incubated for an additional 3-6 hours at 37° C., 5% CO2, and 95% humidity. Plates are read on a Synergy2 or equivalent reader (Biotek, Winooski VT) using an excitation of 540 nm and an emission of 600 nm. Data is analyzed using Prism software (GraphPad, San Diego, CA) to calculate IC50 values.

| SMILES | IC50 (Miapaca-2 cells [1]) [nM] | IC50 (Miapaca-2 cells [2]) [nM] | IC50 (WM3629 cells) [nM] |
| --- | --- | --- | --- |
| CNC(=O)c1cc(-c2cncc(-c3cc(NC(=O)c4ccnc(C(C)(C)F)c4)ccc3C)c2)ccn1 [Example 413] | 100 to 500 | – | – |
| COc1ccc(NC(=O)c2ccnc(C(C)(C)C#N)c2)cc1-c1cccc(-c2cc(NC(=O)C3CC3)ncn2)c1 [Example 438] | 100 to 500 | – | – |
| CNC(=O)c1cc(-c2cncc(-c3cc(NC(=O)c4ccnc(C(C)(F)F)c4)ccc3C)c2)ccn1 [Example 440] | – | 500 to 1000 | – |
| CNC(=O)c1cc(-c2cc(-c3cc(NC(=O)c4ccnc(C(C)(F)F)c4)ccc3C)ccn2)ccn1 [Example 441] | – | 100 to 500 | – |
| CNC(=O)c1cc(-c2cc(-c3cc(NC(=O)c4ccnc(C(C)C)c4)ccc3C)ccn2)ccn1 [Example 443] | – | 100 to 500 | ≤ 100 |
| CNC(=O)c1cc(-c2cncc(-c3cc(NC(=O)c4ccnc(C(C)C)c4)ccc3C)c2)ccn1 [Example 445] | – | 100 to 500 | ≤ 100 |
| CNC(=O)c1cc(-c2cncc(-c3cc(NC(=O)c4ccnc(C(C)C)c4)ccc3C)c2)ncn1 [Example 446] | – | – | ≤ 100 |
| Cc1ncc(NC(=O)c2ccnc(C(C)(F)F)c2)cc1-c1ccnc(-c2ccnc(NC(=O)C3CC3)c2)c1 [Example 466] | – | – | ≤ 100 |
| CNC(=O)c1cc(-c2cc(-c3cc(NC(=O)c4ccnc(C(C)(C)F)c4)ccc3C)c(F)cn2)ccn1 [Example 469] | – | – | ≤ 100 |
| CNC(=O)c1cc(-c2cc(-c3cc(NC(=O)c4ccnc(C(C)(C)F)c4)ccc3C)cc(C)n2)ccn1 [Example 470] | – | – | ≤ 100 |
| CNC(=O)c1cc(-c2cc(-c3cc(NC(=O)c4ccnc(C(C)(C)F)c4)ccc3C)cnn2)ccn1 [Example 473] | – | – | ≤ 100 |
| CNC(=O)c1cc(-c2cc(-c3cc(NC(=O)c4ccnc(C(C)(C)F)c4)ccc3C)ncn2)ccn1 [Example 474] | – | – | ≤ 100 |
| Cc1ccc(NC(=O)c2ccnc(C(C)(C)F)c2)cc1-c1ccnc(-c2ccnc(C(N)=O)c2)c1 [Example 476] | – | 100 to 500 | ≤ 100 |
| CNC(=O)c1cc(-c2cc(-c3cc(NC(=O)c4cnnc(C(F)(F)F)c4)ccc3C)ccn2)ccn1 [Example 477] | – | – | ≤ 100 |
| CNC(=O)c1cc(-c2cc(-c3cc(NC(=O)c4ccnc(C(C)(C)F)c4)ccc3F)ccn2)ccn1 [Example 479] | – | 1000 to 10000 | ≤ 100 |
| CNC(=O)c1cc(-c2cc(-c3cc(NC(=O)c4ccnc(C(C)(C)F)c4)cc(F)c3C)ccn2)ccn1 [Example 480] | – | – | ≤ 100 |
| CNC(=O)c1cc(-c2cc(-c3cc(NC(=O)c4ccnc(C(C)(C)F)c4)ccn3)ccn2)ccn1 [Example 481] | – | – | 1000 to 10000 |
| CNC(=O)c1cc(-c2cc(-c3cc(NC(=O)c4ccnc(C(C)(C)F)c4)c(F)cc3F)ccn2)ccn1 [Example 482] | – | 1000 to 10000 | ≤ 100 |
| Cc1cc(-c2cc(NC(=O)c3ccnc(C(C)(C)F)c3)ccc2C)cc(-c2ccnc(C#N)c2)n1 [Example 483] | – | – | ≤ 100 |
| Cc1cc(-c2cc(NC(=O)c3ccnc(C(C)(C)F)c3)ccc2C)cc(-c2ccnc(C(N)=O)c2)n1 [Example 484] | – | 500 to 1000 | ≤ 100 |
